Laboratory results as given in US8022209B2, “Substituted nitrogen-containing heteroaryl derivatives useful as modulators of the histamine H4 receptor” (Janssen Pharmaceutica NV, priority 2007, dated 2011).

Target: T1, human histamine H4 receptor (Homo sapiens, UniProt Q9H3N8)
T1 construct: expressed in transfected cells; host or cells: SK-N-MC cells or COS7 cells, transiently transfected with pH4R; cell membranes
Experiment: Binding Assay on Recombinant Human Histamine H4 Receptor
Details: competition binding vs 3H-histamine (5 nM, KD 5 nM), membranes of SK-N-MC or COS7 cells transfected with human H4R; Cheng-Prusoff; average of results obtained
Experimental: Binding Assay on Recombinant Human Histamine H4 Receptor
SK-N-MC cells or COS7 cells were transiently transfected with pH4R and grown in 150 cm^2 tissue culture dishes. Cells were washed with saline solution, scraped with a cell scraper and collected by centrifugation (1000 rpm, 5 min). Cell membranes were prepared by homogenization of the cell pellet in 20 mM Tris-HCl with a polytron tissue homogenizer for 10 sec at high speed. Homogenate was centrifuged at 1000 rpm for 5 min at 4° C. The supernatant was then collected and centrifuged at 20,000×g for 25 min at 4° C. The final pellet was resuspended in 50 mM Tris-HCl. Cell membranes were incubated with ^3H-histamine (5-70 nM) in the presence or absence of excess histamine (10,000 nM). Incubation occurred at room temperature for 45 min. Membranes were harvested by rapid filtration over Whatman GF/C filters and washed 4 times with ice-cold 50 mM Tris HCl. Filters were then dried, mixed with scintillant and counted for radioactivity. SK-N-MC or COS7 cells expressing human histamine H4 receptor were used to measure the affinity of binding of other compounds and their ability to displace ^3H-ligand binding by incubating the above-described reaction in the presence of various concentrations of inhibitor or compound to be tested. For competition binding studies using ^3H-histamine, Ki values were calculated, based on an experimentally determined KD value of 5 nM and a ligand concentration of 5 nM, according to Y. C.

| Structure (SMILES) | Ki |
| --- | --- |
| CN1CCN(c2ccnc(-c3cccc(-c4ccccc4)c3)c2)CC1 [compound 38] | 52 nM |
| CN1CCN(c2ncnc(-c3ccsc3)n2)CC1 [compound 1, 2-(4-Methyl-piperazin-1-yl)-4-thiophen-3-yl-[1,3,5]triazine] | 44 nM |
| CN1CCN(c2ncnc(-c3ccc(Br)cc3)n2)CC1 [compound 10, 2-(4-Bromo-phenyl)-4-(4-methyl-piperazin-1-yl)-[1,3,5]triazine] | 36 nM |
| Cc1ccc(-c2cc(N3CCN(C)CC3)ccn2)cc1Cl [compound 37] | 65 nM |
| CN1CCN(c2ncnc(-c3ccc(Br)s3)n2)CC1 [compound 18, 2-(5-Bromo-thiophen-2-yl)-4-(4-methyl-piperazin-1-yl)-[1,3,5]triazine] | 37 nM |
| CN1CCN(c2ccnc(-c3ccc(F)c(Cl)c3)c2)CC1 [compound 30] | 138 nM |
| CN1CCN(c2ncnc(-c3ccncc3)n2)CC1 [compound 20, 2-(4-Methyl-piperazin-1-yl)-4-pyridin-4-yl-[1,3,5]triazine] | 950 nM |
| CN1CCN(c2ncnc(-c3cccc(F)c3)n2)CC1 [compound 7, 2-(3-Fluoro-phenyl)-4-(4-methyl-piperazin-1-yl)-[1,3,5]triazine] | 87 nM |
| Cc1ccc(-c2ncnc(N3CCN(C)CC3)n2)cc1 [compound 4, 2-(4-Methyl-piperazin-1-yl)-4-p-tolyl-[1,3,5]triazine] | 75 nM |
| CN1CCN(c2ccnc(-c3ccsc3)c2)CC1 [compound 26] | 37 nM |
| CN1CCN(c2ncnc(-c3cccc(C(F)(F)F)c3)n2)CC1 [compound 8, 2-(4-Methyl-piperazin-1-yl)-4-(3-trifluoromethyl-phenyl)-[1,3,5]triazine] | 73 nM |
| Cc1ccc(-c2cc(N3CCN(C)CC3)ccn2)cc1F [compound 31] | 75 nM |
| CN1CCN(c2ncnc(-c3cc(Br)cs3)n2)CC1 [compound 9] | 22 nM |
| CN1CCCN(c2ncnc(-c3sccc3Br)n2)CC1 [compound 24, 1-[4-(3-Bromo-thiophen-2-yl)-[1,3,5]triazin-2-yl]-4-methyl-[1,4]diazepane] | 267 nM |
| CN1CCN(c2ccnc(-c3cccc(O)c3)c2)CC1 [compound 33] | 577 nM |

Next, values leading:

| Ki | Structure (SMILES) |
| --- | --- |
| 79 nM | Cc1ccsc1-c1ncnc(N2CCN(C)CC2)n1 [compound 136] |
| 111 nM | Cc1cc(-c2ncnc(N3CCN(C)CC3)n2)ccc1F [compound 115, 2-(4-Fluoro-3-methyl-phenyl)-4-(4-methyl-piperazin-1-yl)-[1,3,5]triazine] |
| > 10000 nM | CN1CCN(c2ncnc(-c3ccc(-c4ccccc4)cc3)n2)CC1 [compound 116, 2-Biphenyl-4-yl-4-(4-methyl-piperazin-1-yl)-[1,3,5]triazine] |
| 128 nM | CN1CCN(c2ncnc(-c3ccccc3)n2)CC1 [compound 118, 2-(4-Methyl-piperazin-1-yl)-4-phenyl-[1,3,5]triazine] |
| 268 nM | CN1CCN(c2ccnc(-c3ccc(-c4cccs4)s3)c2)CC1 [compound 145] |
| 643 nM | COc1cscc1-c1ncnc(N2CCN(C)CC2)n1 [compound 130, 2-(4-Methoxy-thiophen-3-yl)-4-(4-methyl-piperazin-1-yl)-[1,3,5]triazine] |
| 1930 nM | CN1CCN(c2ncnc(-c3cccc(-c4ccccc4)c3)n2)CC1 [compound 108, 2-Biphenyl-3-yl-4-(4-methyl-piperazin-1-yl)-[1,3,5]triazine] |
| 99 nM | CN1CCN(c2ncnc(-c3ccc(F)cc3Cl)n2)CC1 [compound 138, 2-(2-Chloro-4-fluoro-phenyl)-4-(4-methyl-piperazin-1-yl)-[1,3,5]triazine] |
| 397 nM | CN1CCCN(c2cc(-c3cccs3)ncn2)CC1 [compound 68] |
| 60 nM | Cc1ccc(F)cc1-c1ncnc(N2CCN(C)CC2)n1 [compound 123, 2-(5-Fluoro-2-methyl-phenyl)-4-(4-methyl-piperazin-1-yl)-[1,3,5]triazine] |
| 52 nM | Cc1ccsc1-c1ncnc(N2CCN(C)CC2)n1 [compound 140, 2-(4-Methyl-piperazin-1-yl)-4-(3-methyl-thiophen-2-yl)-[1,3,5]triazine] |
